Each compound was assayed against SMYD3 (Homo sapiens (Human), UniProt Q9H7B4) (assay: SMYD3 biochemical assay (SPA, 3H-SAM methylation of MEKK2 protein substrate)). Conditions: read-out: SMYD3 Biochem IC50 (μM)*.
How it was run: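 Enzyme: untagged full-length human SMYD3 from E. coli; substrate GST-tagged MEKK2 from insect cells. Buffer 25 mM Tris-Cl pH 8.0, 1 mM TCEP, 0.005% BSG/Tween 20. 30 min compound–enzyme preincubation at RT; 3H-SAM/MEKK2 start; stop with cold SAM (100 uM final); SPA readout in cpm.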

Going from `CC1CN(C(=O)CCCN)CC(C)C1NC(=O)c1cc(C2CC2)on1` (centres unmarked) [compound 332, N-(1-(4-aminobutanoyl)-3,5-dimethylpiperidin-4-yl)-5-cyclopropylisoxazole-3-carboxamide] to `NCCCC(=O)N1CCC(NC(=O)c2cc(C3CC3)on2)C(C(F)(F)F)C1` (centres unmarked) [compound 356, N-(1-(4-aminobutanoyl)-3-(trifluoromethyl)piperidin-4-yl)-5-cyclopropylisoxazole-3-carboxamide], the IC50 falls from 2.53 µM to 1.21 µM (2.1-fold).

Compared with `C[C@H]1C[C@@H](NC(=O)c2cc(C3CC3)on2)CCN1C(=O)CC(CN)c1ccccc1` (stereo partly drawn) [compound 338, N-((2S,4S)-1-(4-amino-3-phenylbutanoyl)-2-methylpiperidin-4-yl)-5-cyclopropylisoxazole-3-carboxamide], `C[C@H]1C[C@H](NC(=O)c2cc(C3CC3)on2)CCN1C(=O)CC(CN)c1ccccc1` (stereo partly drawn) [compound 339, N-((2S,4R)-1-(4-amino-3-phenylbutanoyl)-2-methylpiperidin-4-yl)-5-cyclopropylisoxazole-3-carboxamide] is 5.5-fold higher in IC50: 0.842 µM for the first, 4.67 µM for the second.

First: C[C@@H]1C[C@H](NC(=O)c2cc(C3CC3)on2)CCN1C(=O)C1CCCC(CN)C1 (stereo partly drawn) [compound 342, N-((2R,4R)-1-(3-(aminomethyl)cyclohexane-1-carbonyl)-2-methylpiperidin-4-yl)-5-cyclopropylisoxazole-3-carboxamide]
Second: C[C@@H]1C[C@@H](NC(=O)c2cc(C3CC3)on2)CCN1C(=O)C1CCCC(CN)C1 (stereo partly drawn) [compound 343, N-((2R,4S)-1-(3-(aminomethyl)cyclohexane-1-carbonyl)-2-methylpiperidin-4-yl)-5-cyclopropylisoxazole-3-carboxamide]
The IC50 of the first is 1.9-fold lower: 0.552 µM for the first, 1.07 µM for the second.

Compared with `C[C@@H]1C[C@@H](NC(=O)c2cc(C3CC3)on2)CCN1S(=O)(=O)CCc1ccccc1` [compound 344, 5-cyclopropyl-N-((2R,4S)-2-methyl-1-(phenethylsulfonyl)piperidin-4-yl)isoxazole-3-carboxamide], `C[C@@H]1C[C@@H](NC(=O)c2cc(C3CC3)on2)CCN1S(=O)(=O)c1ccccc1` [compound 353, 5-cyclopropyl-N-((2R,4S)-2-methyl-1-(phenylsulfonyl)piperidin-4-yl)isoxazole-3-carboxamide] is lower in IC50: greater than 10 µM for the first, 3.98 µM for the second.

First: C[C@@H]1C[C@@H](NC(=O)c2cc(C3CC3)on2)CCN1S(=O)(=O)CCC(F)(F)F [compound 345, 5-cyclopropyl-N-((2R,4S)-2-methyl-1-((3,3,3-trifluoropropyl)sulfonyl)piperidin-4-yl)isoxazole-3-carboxamide]
Second: CCCCS(=O)(=O)N1CC[C@@H](NC(=O)c2cc(C3CC3)on2)C[C@@H]1C [compound 347, N-((2S,4R)-1-(butylsulfonyl)-2-methylpiperidin-4-yl)-5-cyclopropylisoxazole-3-carboxamide]
The IC50 of the first is higher: greater than 10 µM for the first, 8.02 µM for the second.

Going from `C[C@H]1C[C@H](NC(=O)c2cc(C3CC3)on2)CCN1S(=O)(=O)N(C)C` [compound 346, 5-cyclopropyl-N-((2S,4R)-1-(N,N-dimethylsulfamoyl)-2-methylpiperidin-4-yl)isoxazole-3-carboxamide] to `C[C@@H]1C[C@@H](NC(=O)c2cc(C3CC3)on2)CCN1S(=O)(=O)c1cccc(C#N)c1` [compound 355, N-((2R,4S)-1-((3-cyanophenyl)sulfonyl)-2-methylpiperidin-4-yl)-5-cyclopropylisoxazole-3-carboxamide], the IC50 falls from greater than 10 µM to 0.278 µM.

First: C[C@@H]1CC(NC(=O)c2cc(C3CC3)on2)CCN1C(=O)[C@@H](CN)Cc1ccc(O)cc1 (stereo partly drawn) [compound 357, N-((2R)-1-((R)-3-amino-2-(4-hydroxybenzyl)propanoyl)-2-methylpiperidin-4-yl)-5-cyclopropylisoxazole-3-carboxamide]
Second: C[C@H](C(=O)N1CC[C@@H](NC(=O)c2cc(C3CC3)on2)C[C@@H]1C)C1CCNCC1 [compound 358, 5-cyclopropyl-N-((2S,4R)-2-methyl-1-((S)-2-(piperidin-4-yl)propanoyl)piperidin-4-yl)isoxazole-3-carboxamide]
The IC50 of the first is 2.9-fold lower: 1.17 µM for the first, 3.4 µM for the second.

— patent US10577363B2, “Substituted piperidine compounds” (EPIZYME, INC., priority 2014, dated 2020)
